According to patent US20170120592A1, “INK JET RECORDING METHOD AND INK JET RECORDING APPARATUS” (CANON KABUSHIKI KAISHA, priority 2015, published 2017):

Test: Water-solubility of dye
Format: physicochemical
Conditions: maximum mass of the dye in a sodium salt form that can be dissolved in 100 g of pure water at 20° C.

Compound | water-solubility of the dye
CCN(Cc1cccc(S(=O)(=O)[O-])c1)c1ccc(C(=C2C=CC(=[N+](CC)Cc3cccc(S(=O)(=O)[O-])c3)C=C2)c2ccccc2S(=O)(=O)[O-])cc1.[Na+].[Na+] [C.I. Acid Blue 9] | Blue 9 (40 g)
C.I. Direct Blue 199 | (30 g)
C.I. Direct Red 249 | (21 g)
C.I. Direct Red 289 | (14 g)
C.I. Direct Yellow 86 | (10 g)
